One test relates to H209. Description: Survival of cancer cells after gemcitabine, H209. The conditions noted are these: H209 SCLC in vitro model. The format is cell-based. As to the method: (§1) SCLC cell lines were incubated with dimethyl sulfoxide (vehicle control), SRA737 or Gemcitabine for 96 hours at nine distinct concentrations, with the maximum dose being 10 μM. A CellTiter-Glo luminescent cell viability assay (Promega) was performed after 96 hours of treatment as per the manufacturer's specifications. IC50 values were estimated using Drexplorer, as previously described (Tong P, Coombes K R, Johnson F M, Byers L A, Diao L, Liu D D, Lee J J, Heymach J V, Wang J. drexplorer: A tool to explore dose-response relationships and drug-drug interactions. Bioinformatics. 2015 May 15; 31(10):1692-4.)

The next test concerns H524. Description: Survival of cancer cells after gemcitabine, H524. The following applies: H524 SCLC in vitro model. Type of test: cell-based. As to the method: as §1
A further test concerns RPP. Description: Survival of cancer cells after gemcitabine, RPP. The format is cell-based, murine. The conditions noted are these: RPP SCLC in vitro model. As to the method:
Data presented as mean±SD and p values by t-test ***p<0.001.
as §1

A further test concerns RPP tumor. Description: Flank RPP (SCLC) tumor growth in B6129F1 immunocompetent mice. Type of test: in vivo, mouse. The conditions noted are these: anti-PD-L1 300 μg 1-day-on/6-days-off; LDG 40 mg/kg 1-day-on/6-days-off; SRA737 100 mg/kg 2-day-on/5-days-off. The method, then: Tumors were evaluated twice weekly for the duration of the study. Tumor volumes were measured on all mice three times per week and calculated (width^2×length×0.4) using manual calipers. Once the average tumor size was in the range of 120-150 mm^3, mice were randomized into dosing groups using stratified sampling by assigning three animals per group for short-term reverse-phase protein array analysis and long-term treatment. Dosing schedules and duration varied depending on the study. Mice were weighed three times per week for the duration of the study, and a decrease in body weight >15% was considered indicative of a toxic dose. The Student t-test was used to determine statistical significance between compound- and vehicle-treated groups.
[…] 15A.

The test system of a further test is IFNβ, CXCL10 and CCL5. Description: qPCR of IFNβ, CXCL10 and CCL5 in resected RPP tumors. The format is in vivo, mouse. The conditions noted are these: RPP tumors resected at Day 21; SRA737 2-days-on/5-days-off. The method, then: Data presented as mean±SD and p values by t-test * p<0.05, **p<0.01, ***p<0.001.
Real-time PCR was done using SYBR Select Master Mix (Life Technologies, cat #4472908) according to the manufacturer's protocol. Primers were purchased from Sigma Aldrich, Inc. Triplicate PCR reactions were run on ABI (7500 Fast Real Time PCR System). The comparative Ct method using the average 2ΔΔCT value for each set of triplicates was used, and the average of the biological replicates was calculated. Negative controls were included for every primer set, and GAPDH was used as the […].
(In qPCR the cycle at which signal appears reflects the starting amount.)

SMILES strings stand for the structures.

With `Nc1ccn([C@@H]2O[C@H](CO)[C@@H](O)C2(F)F)c(=O)n1` [gemcitabine], the “response of cancer cells to gemcitabine alone” value in the test on H209, with H524 and in the test on RPP was “resistant” each time. For the same molecule, the “anti-tumor effect (tumor volume)” value in the test with RPP tumor is listed as “no significant anti-tumor effect”. Moreover, the “expression of IFNβ, CCL5 and CXCL10” value with IFNβ, CXCL10 and CCL5 was “Neither LDG nor SRA737 monotherapy (2-days-on/5-days-off) showed any significant effect”.

The values above are taken from patent US20220184091A1, “Methods of Treating Cancer with Chk1 Inhibitors” (Sierra Oncology, Inc., priority 2019, published 2022).
